Legend:
[1] = test system: rat ventral mesencephalan neurons; test: [3H]Dopamine cell culture assay (6-OHDA neurotoxicity); type: cell-based; conditions: approximately 3×10^−6 M compound; 6-OHDA 30 μM; uptake 22 hrs after exposure; FIG. 1
Description: Cultures of dopaminergic neurons were prepared according to a modification of the procedure described by Raymon and Leslie (J. Neurochem. 62, 1015-1024, 1994). Time-mated pregnant rats were sacrificed on embyronic day 14-15 (crown rump length 11-12 mm) and the embryos removed by cesarean section. The ventral mesencephalon, containing the dopaminergic neurons, was dissected from each embryo. Tissue pieces from approximately 48 embryos were pooled and dissociated both enzymatically and mechanically. An aliquot from the resulting cell suspension was counted and the cells were plated in high glucose DMEM/F12 culture medium with 10% fetal bovine serum at a density of 1×10^5 cells/well of a Biocoat poly-D-lysine-coated 96-well plate. The day following plating was considered 1 day in vitro (DIV). Cells were maintained in a stable environment at 37° C., 95% humidity, and 5% CO2. A partial medium change was performed at 3 DIV. […]
[^3H]Dopamine uptake is used as a measure of the health and integrity of dopaminergic neurons in culture (Prochiantz et al., PNAS 76: 5387-5391, 1979). […] Briefly, cells treated with 6-OHDA in the presence and absence of Compound CC were assessed in the uptake assay 22 hrs after exposure to 6-OHDA. […] Radioactivity was removed and the cultures were washed 3× with ice cold PBS. […]

[2] = Solubility in aqueous media; type: physicochemical
[3] = Brain-blood plasma distribution in vivo; parameters: species or system Sprague-Dawley rats; conditions: rat, 10 mg/kg intravenously, 2 hr post-dose
Description: Compound CC was administered intravenously (10 mg/kg) into the veins of Sprague-Dawley rats. After 2 hr, blood samples were obtained from the animals and their vascular systems were perfused with approximately 100 mL of saline to rid their brains of blood. The brains were removed from the animals, weighed, and homogenized in a 50 mL conical tube containing 10 equivalents (w/v) of methanol/saline (1:1) using a Tissue Tearer (Fischer Scientific). The homogenized material was extracted by adding 600 μL of cold methanol to 250 μL of brain homogenate vortexed for 30 sec and subjected to centrifugation for 5 min. After centrifugation, 600 μL of the resulting supernatant was transferred to a clean tube and evaporated at room temperature under reduced pressure to provide a pellet. […] The brain homogenate analysis samples, plasma analysis samples, and standard analysis samples were analyzed and compared using HPLC by injecting 100 μL of a sample onto a 5 μm C-18 Luna column (4.6 mm×150 mm, commercially available from Phenomenex of Torrance, Calif.) and eluting at 1 mL/min with a linear gradient of 30% aqueous acetonitrile containing 0.1% trifluoroacetic acid to 90% aqueous acetonitrile containing 0.1% trifluoroacetic acid over 8 minutes and holding at 90% aqueous acetonitrile containing 0.1% trifluoroacetic acid for 3 min. with absorbance detection at 450 nm. […]

With `Nc1ccc2snc3c2c1C(=O)c1ccccc1-3` [Compound CC] the “protection of neurons from 6-OHDA, by [3H]dopamine uptake” value [1] was “protects rat ventral mesencephalan neurons from the toxic effects of 6-OHDA”, the “solubility in aqueous media” value [2] was “limited solubility” and the brain-drug concentration [3] was “approximately 65 nmole/g”.
